The values below are quoted from earlier work in patent US11173140B2, “Dosing regimens of PKC activators” (COGNITIVE RESEARCH ENTERPRISES, INC., priority 2015, dated 2021).

Like-named read-outs stand apart in the source and are kept apart here.

The test system of data set [1] is PKC. The following applies: cited from earlier work.
Data set [2] relates to PKC. The following applies: cited from earlier work. The source holds these as a separate data set.
Data set [3] concerns the target PKC. The following applies: competition with [3H] phorbol dibutyrate; read-out: Ki, binding to PKC; cited from earlier work.
Data set [4] has as its system NCI 60 cell line screen. The following applies: NCI 60 cell lines; cited from earlier work.
[5] abbreviates: A-ring bryologs, read-out: affinity for PKC.

On to `CCCCCCCC(=O)O[C@H]1/C(=C/C(=O)OC)C[C@H]2C[C@H](CO)OC(=O)C[C@H](O)C[C@@H]3CCC[C@H](C[C@@H]4CCO[C@H](/C=C/C(C)(C)[C@]1(O)O2)O4)O3` [Analog 1], for which, in data set [1], the “affinity for PKC (in words)” value is on record as “highest affinity”. Besides, the Ki in data set [1] (read-out: PKC Affin) is 0.25 nM.

Consider `CCC1CC1CC1CC1CC1CC1CC1CC1CC1CC1CC1CC1CCC(=O)OC` (stereo not shown) [DHA-CP6, cyclopropanated docosahexaenoic acid methyl ester], for which the effective concentration in data set [2] is listed as 10 nM.

For the molecule `CC1=C[C@]23C(=O)[C@@H](C=C(COC(=O)c4ccccc4)[C@@H](O)[C@]2(O)[C@H]1OC(=O)c1ccccc1)[C@H]1[C@@H](C[C@H]3C)C1(C)C` [Ingenol 3,20-dibenzoate], the Ki in data set [3] was 240 nM.

As to `CCCCCCCC(=O)OC1C(=CC(=O)OC)CC2CC(CO)OC(=O)CC(O)CCOC(C(C)(C)C)CC3CCOC(C=CC(C)(C)C1(O)O2)O3` (stereo not shown) [bryolog 3], the Ki in data set [1] (setting [5]) is 6.5 nM.

Regarding `CC1=CC[C@H](C)C(C)(C)[C@@H]1/C=C/C(C)=C/CC[C@@]1(CO)[C@H](CCCO)/C(=C(/C)C=O)CC[C@]1(C)O` [Iripallidal], the “GI50 (concentration required to inhibit growth by 50%)” value in data set [4] was “micromolar to nanomolar range”.

Take `CCCCCCCC(=O)OC1C(=CC(=O)OC)CC2CC(CO)OC(=O)CC(O)CCOC(c3ccccc3)CC3CCOC(C=CC(C)(C)C1(O)O2)O3` (stereo not shown) [bryolog 4]: the Ki in data set [1] (setting [5]) is 2.3 nM.
